# Source: article PMC12527922, “Cocaine chemogenetics blunts drug-seeking by synthetic physiology” (Nature, 2025)
# Several values for one entry are separate records, joined by “and”; a condition that tells them apart may be missing. Equal values may be shown once. Read-outs that look alike come from different tables or passages of the source.
# Target: coca-5HT3 (Homo sapiens, UniProt P36544, G175K/L141G/Y210F/Y217F)
# Assay: [^3H]ASEM displacement, membranes of HEK293 cells expressing coca-5HT3
# Format: binding, human α7 nAChR LBD, mouse 5HT3 IPD
# Settings: for [3H]ASEM binding, normalised dose-response (DR replicates): HotNM 2.000
# Description: Cells were suspended in Tris-HCl 50 mM pH 7.4 supplemented with protease inhibitor cocktail (1:100, Sigma-Aldrich). HEK293 cells were disrupted with a 6 Polytron homogenizer (Kinematica). Homogenates were centrifuged at 48,000g (50 min, 4 °C) and washed twice in the same conditions to isolate the membrane fraction. Protein was quantified using the bicinchoninic acid method (Pierce). […] Free and membrane-bound radioligands were separated by rapid filtration of 500 μl aliquots in a 96-well plate harvester (Brandel) and washed with 2 ml of ice-cold Tris-HCl buffer. Microscint-20 scintillation liquid (65 μl per well, PerkinElmer) was added to the filter plates, plates were incubated overnight at room temperature and radioactivity counts were determined in the MicroBeta2 plate counter (PerkinElmer) with an efficiency of 41%. Two-site competition curves were fitted using Prism 10 (GraphPad). Ki values were calculated using the Cheng–Prusoff equation.
# [1] = Two sites - Fit Ki, best-fit value per replicate
# [2] = Two sites - Fit Ki, best-fit value, single experiment
# coca-5HT3, sequence (P23979 242-489): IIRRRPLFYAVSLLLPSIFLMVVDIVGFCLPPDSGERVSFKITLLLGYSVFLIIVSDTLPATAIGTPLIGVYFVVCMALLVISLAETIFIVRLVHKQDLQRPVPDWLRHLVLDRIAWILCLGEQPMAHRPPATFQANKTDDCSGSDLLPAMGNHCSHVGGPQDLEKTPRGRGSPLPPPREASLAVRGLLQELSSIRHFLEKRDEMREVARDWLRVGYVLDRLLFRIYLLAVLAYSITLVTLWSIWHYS
# coca-5HT3, sequence (P36544 23-224 L141G/G175K/Y210F/Y217F): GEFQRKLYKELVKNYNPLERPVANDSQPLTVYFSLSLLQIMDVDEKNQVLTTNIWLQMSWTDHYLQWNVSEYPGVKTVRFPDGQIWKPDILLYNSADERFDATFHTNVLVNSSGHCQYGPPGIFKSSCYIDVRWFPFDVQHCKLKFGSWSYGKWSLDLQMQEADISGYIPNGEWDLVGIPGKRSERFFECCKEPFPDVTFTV
smiles,measurement,setting,value
COC(=O)[C@H]1[C@@H](OC(=O)c2ccccc2)C[C@@H]2CC[C@H]1N2C [cocaine],binding to coca-5HT3,,biphasic manner
same,Ki,"KiHi MEAN, Two sites - Fit Ki, MEAN of replicates, high-affinity site, concentrations in log(M)",1.43e-11 M
same,Ki,"KiHi, Two sites - Fit Ki, best-fit value per replicate, high-affinity site, concentrations in log(M)",2.45e-11 M and 4.07e-12 M
same,Ki,"KiHi, Two sites - Fit Ki, best-fit value, single experiment",3.36e-09 M and 4.69e-10 M and 1.04e-09 M
same,Ki,"KiLo MEAN, Two sites - Fit Ki, MEAN of replicates, low-affinity site, concentrations in log(M)",8.42e-07 M
same,Ki,"KiLo, Two sites - Fit Ki, best-fit value per replicate, low-affinity site, concentrations in log(M)",1.34e-06 M and 3.42e-07 M
same,FractionHi MEAN,"Two sites - Fit Ki, MEAN of 3 experiments",0.4542
same,Ki,"Two sites - Fit Ki, MEAN of 3 experiments, read-out: KiHi MEAN",1.62e-09 M
same,Ki,"Two sites - Fit Ki, MEAN of 3 experiments, read-out: KiLo MEAN",1.05e-05 M
same,Bottom,[1],2.185 and 3.88
same,Top,[1],100.5 and 97.8
same,FractionHi,"Two sites - Fit Ki, best-fit value per replicate, fraction of high-affinity sites",0.3742 and 0.3845
same,logKiHi,"Two sites - Fit Ki, best-fit value per replicate, high-affinity site, concentrations in log(M), HotNM 2.000, HotKdNM 0.1500",-10.61 and -11.39
same,logKiLo,"Two sites - Fit Ki, best-fit value per replicate, low-affinity site, concentrations in log(M), HotNM 2.000, HotKdNM 0.1500",-5.872 and -6.466
same,FractionHi,[2],0.6584 and 0.3371 and 0.3672
same,Top,[2],99.93 and 93.31 and 95.95
same,FractionHi MEAN,"Two sites - Fit Ki, MEAN of replicates",0.3794
same,high-affinity binding sites,"biphasic curve, displacement of [^3H]ASEM 2 nM",45 ± 10%
same,"[3H]ASEM binding, normalised dose-response (DR replicates)",competitor log(M) -4,11.458 and 0
same,"[3H]ASEM binding remaining, single experiment",competitor log(M) -5,23.47 and 26.447 and 37.669
same,"[3H]ASEM binding, normalised dose-response (DR replicates)",competitor log(M) -5,47.775 and 41.228
same,"[3H]ASEM binding remaining, single experiment",competitor log(M) -5.5,17.557
same,"[3H]ASEM binding, normalised dose-response (DR replicates)",competitor log(M) -5.5,48.554 and 26.456
same,"[3H]ASEM binding remaining, single experiment",competitor log(M) -6,27.001
same,"[3H]ASEM binding, normalised dose-response (DR replicates)",competitor log(M) -6,57.625 and 37.983
same,"[3H]ASEM binding remaining, single experiment",competitor log(M) -6.5,30.205 and 53.107
same,"[3H]ASEM binding, normalised dose-response (DR replicates)",competitor log(M) -6.5,51.124 and 74.04
same,"[3H]ASEM binding remaining, single experiment",competitor log(M) -7,57.024 and 47.634
same,"[3H]ASEM binding, normalised dose-response (DR replicates)",competitor log(M) -7,70.9 and 74.174
same,"[3H]ASEM binding, normalised dose-response (DR replicates)",competitor log(M) -7.5,71.728
same,"[3H]ASEM binding remaining, single experiment",competitor log(M) -8,65.97 and 67.573 and 58.641
same,"[3H]ASEM binding, normalised dose-response (DR replicates)",competitor log(M) -8,67.385 and 47.743
same,"[3H]ASEM binding remaining, single experiment",competitor log(M) -8.5,74.698 and 69.889 and 68.057
same,"[3H]ASEM binding remaining, single experiment",competitor log(M) -9,100.179 and 77.048 and 83.003
same,"[3H]ASEM binding, normalised dose-response (DR replicates)",competitor log(M) -9,72.343 and 49.428
same,"[3H]ASEM binding remaining, single experiment",competitor log(M) -9.5,97.899 and 80.952 and 89.425
same,"[3H]ASEM binding remaining, single experiment",competitor log(M) -10,96.081 and 90.356 and 93.104
same,"[3H]ASEM binding, normalised dose-response (DR replicates)",competitor log(M) -10,79.023
same,"[3H]ASEM binding remaining, single experiment",competitor log(M) -10.5,106.622 and 85.323 and 92.652
same,"[3H]ASEM binding remaining, single experiment",competitor log(M) -11,94.021 and 93.563 and 93.105
same,"[3H]ASEM binding, normalised dose-response (DR replicates)",competitor log(M) -11,91.338
same,"[3H]ASEM binding remaining, single experiment",competitor log(M) -13,96.794 and 101.374 and 101.832
same,"[3H]ASEM binding, normalised dose-response (DR replicates)",competitor log(M) -13,100.546 and 98.09
same,Ki,"high-affinity inhibition constant (KiH), displacement of [^3H]ASEM 2 nM, two-site fit",1.6e-09 ± 9e-10 M
same,Ki,"logKiHi, Two sites - Fit Ki, best-fit value, single experiment",3.37e-09 M and 4.69e-10 M and 1.04e-09 M
same,Ki,"read-out: low-affinity inhibition constant (KiL), displacement of [^3H]ASEM 2 nM, two-site fit",1e-05 ± 7e-06 M
